# Tested on: HIV replication in T-lymphoid cells
# Test: Spread assay: inhibition of acute HIV infection of T-lymphoid cells
# Type: cell-based
# Details: Human immunodeficiency virus 1, T-lymphoid, read-out: IC95, spread assay (inhibition of HIV replication)
# Protocol: An assay for the inhibition of acute HIV infection of T-lymphoid cells (alternatively referred to herein as the “spread assay”) was conducted in accordance with Vacca, J. P. et al., Proc. Natl. Acad. Sci. USA 1994, 91: 4096. […] The compounds of Examples 26, 29, 30, 33-35 and 62 were tested in the spread assay up to 10 micromolar, but specific IC95 values were not obtained; i.e., the IC95 values were greater than 10 micromolar. The compounds of Examples 47 and 61 were not tested.
row,Compound,IC95 [nM]
1,"CCOC(=O)c1[nH]c2ccc(Br)cc2c1S(=O)(=O)N1CCCCC1 [Example 27, ethyl 5-bromo-3-(piperidin-1-ylsulfonyl)-1H-indole-2-carboxylate]",1000 to 10000
2,"CCOC(=O)c1[nH]c2ccc(Br)cc2c1S(=O)(=O)NCCOC [Example 28, ethyl 5-bromo-3-{[(2-methoxyethyl)amino]sulfonyl}-1H-indole-2-carboxylate]",< 1000
3,"O=C1CN(S(=O)(=O)c2c(C(=O)NCCO)[nH]c3ccc(Br)cc23)CCN1 [Example 36, 5-bromo-N-(2-hydroxyethyl)-3-[(3-oxopiperazin-1-yl)sulfonyl]-1H-indole-2-carboxamide]",1000 to 10000

# Same assay, conditions: Human immunodeficiency virus 1; acute HIV infection of T-lymphoid cells; tested up to 10 micromolar; read-out: IC95, spread assay (inhibition of HIV replication)
row,Compound,IC95 [nM]
1,"NC(=O)c1[nH]c2ccc(Cl)cc2c1S(=O)(=O)NC1CCC1 [Example 3, 5-chloro-3-[(cyclobutylamino)sulfonyl]-1H-indole-2-carboxamide]",< 1000
2,"NC(=O)c1[nH]c2ccc(Cl)cc2c1S(=O)(=O)N1CCC(F)CC1 [Example 46, 5-chloro-3-[(4-fluoropiperidin-1-yl)sulfonyl]-1H-indole-2-carboxamide]",< 1000
3,"O=C(NCCO)c1[nH]c2ccc(Br)cc2c1S(=O)(=O)NC1CC1 [Example 33, 5-bromo-3-[(cyclopropylamino)sulfonyl]-N-(2-hydroxyethyl)-1H-indole-2-carboxamide]",> 10000
4,"CCCNS(=O)(=O)c1c(C(N)=O)[nH]c2ccc(Br)cc12 [Example 23, 5-bromo-3-[(propylamino)sulfonyl]-1H-indole-2-carboxamide]",< 1000
5,"O=C(NCc1ccon1)c1[nH]c2ccc(Br)cc2c1S(=O)(=O)N1CCCC1 [Example 58, 5-bromo-N-(isoxazol-3-ylmethyl)-3-(pyrrolidin-1-ylsulfonyl)-1H-indole-2-carboxamide]",< 1000
6,"O=C(NCc1ccccn1)c1[nH]c2ccc(Br)cc2c1S(=O)(=O)N1CCCC1 [Example 54, 5-bromo-N-(pyridin-2-ylmethyl)-3-(pyrrolidin-1-ylsulfonyl)-1H-indole-2-carboxamide]",< 1000
7,"O=C(NCCc1cnc[nH]1)c1[nH]c2ccc(Br)cc2c1S(=O)(=O)N1CCCC1 [Example 49, 5-bromo-N-[2-(1H-imidazol-5-yl)ethyl]-3-(pyrrolidin-1-ylsulfonyl)-1H-indole-2-carboxamide]",< 1000
8,"NC(=O)c1[nH]c2ccc(Cl)cc2c1S(=O)(=O)N1CCCC(F)C1 (stereo not drawn) [Example 41, 5-chloro-3-[(3-fluoropiperidin-1-yl)sulfonyl]-1H-indole-2-carboxamide]",< 1000
9,"NC(=O)c1[nH]c2ccc(Br)cc2c1S(=O)(=O)NC1CCC1 [Example 44, 5-bromo-3-[(cyclobutylamino)sulfonyl]-1H-indole-2-carboxamide]",< 1000
10,"NC(=O)c1[nH]c2ccc(-c3cccc4ncccc34)cc2c1S(=O)(=O)N1CCCC1 [Example 67, 3-(pyrrolidin-1-ylsulfonyl)-5-quinolin-5-yl-1H-indole-2-carboxamide]",< 1000
11,"C=Cc1ccc2[nH]c(C(N)=O)c(S(=O)(=O)N3CCCC3)c2c1 [Example 66, 3-(pyrrolidin-1-ylsulfonyl)-5-vinyl-1H-indole-2-carboxamide]",< 1000
12,"COC1CCCN(S(=O)(=O)c2c(C(N)=O)[nH]c3ccc(Br)cc23)C1 (stereo not drawn) [Example 20, 5-bromo-3-[(3-methoxypiperidin-1-yl)sulfonyl]-1H-indole-2-carboxamide]",< 1000
13,"NC(=O)c1[nH]c2ccc(Br)cc2c1S(=O)(=O)N1CCC(F)C1 (stereo not drawn) [Example 22, 5-bromo-3-[(3-fluoropyrrolidin-1-yl)sulfonyl]-1H-indole-2-carboxamide]",< 1000
14,"NS(=O)(=O)c1ccc(CNC(=O)c2[nH]c3ccc(Br)cc3c2S(=O)(=O)N2CCCC2)cc1 [Example 55, N-[4-(aminosulfonyl)benzyl]-5-bromo-3-(pyrrolidin-1-ylsulfonyl)-1H-indole-2-carboxamide]",< 1000
15,"NC(=O)c1[nH]c2ccc(Cl)cc2c1S(=O)(=O)N1CCCC1C(F)(F)F (stereo not drawn) [Example 40, 5-chloro-3-{[2-(trifluoromethyl)pyrrolidin-1-yl]sulfonyl}-1H-indole-2-carboxamide]",< 1000
